# ChEMBL document CHEMBL1157256, “Junceellolides J-L, 11,20-epoxybriaranes from the gorgonian coral Junceella fragilis” (2006)
# What was measured:
# Neutrophil = test: Inhibition of FMLP/cytochalasin B-stimulated elastase release in human neutrophils at 10 ug/mL relative to control; type: functional
# [1] = Antioxidant activity in human neutrophils assessed as inhibition of superoxide generation at 10 ug/mL by colorimetric method relative to control; type: functional; conditions: Neutrophil
Structure (SMILES),inhibition at 10 µg/mL (Neutrophil) [%],inhibition at 10 µg/mL [1] [%]
CC(=O)O[C@H]1CC/C(C)=C\[C@@H]2OC(=O)[C@H](C)[C@@]2(O)[C@@H](OC(C)=O)[C@H]2[C@@]3(CC[C@H](OC(C)=O)[C@]12C)CO3,15.4,22.6
CC(=O)O[C@H]1CC[C@@]2(CO2)[C@@H]2[C@H](OC(C)=O)[C@]3(O)[C@@H](C)C(=O)O[C@H]3[C@@H]3O[C@]3(C)CC[C@H](OC(C)=O)[C@@]12C [JUNCEELLOLIDE J],5.17,7.66
CC(=O)O[C@H]1CC/C(C)=C\[C@@H]2OC(=O)[C@H](C)[C@@]2(O)[C@@H](OC(C)=O)[C@H]2[C@]3(CC[C@H](OC(C)=O)[C@]12C)CO3 [JUNCEELLOLIDE K],15,13.9
CC(=O)O[C@H]1CC[C@]2(CO2)[C@@H]2[C@H](OC(C)=O)[C@]3(O)[C@@H](C)C(=O)O[C@H]3[C@@H](O)[C@](C)(O)CC[C@H](OC(C)=O)[C@@]12C [JUNCEELLOLIDE L],5.52,5.55
